From patent US20030022820A1, “IN VIVO ACTIVATION OF TUMOR-SPECIFIC CYTOTOXIC T CELLS” (priority 1995, published 2003) come the findings set out here.

Values joined by “and” are separate entries in the source; they are usually repeats but may differ in a detail not shown here. Identical values can stand only once. Like-named read-outs stand apart in the source and are kept apart here.

One experiment deals with A2.1/K^b-Tg mice. Briefly: Peptide priming of A2.1/K^b-Tg mice, lytic activity of peptide-specific CTL. It is filed as in vivo.
Another experiment has as its target HLA-A2.1 (Homo sapiens, UniProt P04439, D140Y/D185E/D98H/E176V/E277Q/G131W/G231S/I119V/I121R/I166T/I218V/L300P/L318F/N151K/N90K/P208A/P217A/Q86G/Q94H/R138H/R169H/T345S). The experiment in a line: Competition assay for peptide binding to HLA-A2.1 (inhibition of A clone 12 lysis of M1-pulsed EA2 targets).
Another experiment relates to SAOS.175. The experiment in a line: Cytotoxicity assay, lysis of human tumors by H3 and H7 specific CTL. In kind it is cell-based. On the procedure:
(§1) […] target cells were incubated at 37° C. with […] of sodium ^51Cr chromate for 90 minutes in the presence or absence of specific peptide. Cells were washed three times and resuspended in 5% RPMI. For the assay, […] ^51Cr-labeled target cells were incubated with different concentrations of effector cells in a final volume of […] in U-bottomed 96-well plates. Supernatants were removed after 4-7 hrs at 37° C., and the percent specific lysis was determined by the following formula: [formula]
(§2) Tumor cells were preincubated for 24 hours prior to the assay in media supplemented with γ-interferon (γ-IFN, 20 ng/ml) plus tumor necrosis factor-α (TNF-α, 3 ng/ml). It is known that such pretreatment of tumor cells increases the expression of MHC I and adhesion molecules such as ICAM I on the surface of the cell thus enhancing their sensitivity to lysis by CTL. (See, e.g., Fisk, et al., Lympho. & Cytokine Res. 13: 125-131 (1994); Fady, et al., Cancer Immunol. Immunother. 37: 329-336 (1993).)

Another experiment deals with SV80. The experiment is described as above. In kind it is cell-based. On the procedure: as §1, §2
A further experiment deals with T98G. The description is as above. It is filed as cell-based. On the procedure: as §1, §2
For the next experiment, the system named is CASKI. The experiment is described as above. It is filed as cell-based. On the procedure: as §1, §2
Another experiment has as its system SKMEL-5. The experiment is described as above. It is filed as cell-based. On the procedure: as §1, §2
Another experiment deals with U2-OS. The experiment is described as above. It is filed as cell-based. On the procedure: as §1, §2
For another experiment, the system named is ST486. Described as above. It is filed as cell-based. On the procedure: as §1, §2
For another experiment, the system named is LG-2. Described as above. In kind it is cell-based. On the procedure:
as §1, §2

The next experiment relates to OVCAR-5. Described as above. In kind it is cell-based. On the procedure: as §1, §2
The test system of the next experiment is MDA.MB435. The experiment is described as above. In kind it is cell-based. Further details: scale not given here. On the procedure:
as §1, §2

The next experiment relates to MALME-3M. Described as above. It is filed as cell-based. Further details: scale not given here. On the procedure: as §1, §2
For another experiment, the system named is JY. The description is as above. More on the design: scale not given here. It is filed as cell-based. On the procedure: as §1, §2
Experiment [1] relates to A2.1/K^b×CD8 or A2.1 transgenic (Tg) mice. The experiment in a line: Immunization of transgenic mice with Her-2/neu peptides, cytotoxicity against peptide-pulsed T2-A2.1/K^b. In kind it is in vivo. The note with it: A2.1/K^b×CD8 or A2.1 Tg mice.
Method: A2.1/K^b×CD8 and/or A2.1 transgenic mice were immunized with each of the peptides listed in Table 6 to determine if they could stimulate A2.1-restricted CTL. Mice were immunized with a mixture of 100 mg of the Her-2/neu peptide with 120 mg “helper” peptide in 100 ml Incomplete Freund's Adjuvant (IFA).
A2.1/K^b×CD8 or A2.1 lipopolysaccharide (LPS) -blasts were prepared as stimulators for in vitro restimulation of spleen cells from immunized mice. These were prepared by incubating splenocytes from A2/K^b or A2.1 mice in complete RPMI containing 25 mg/ml LPS and 7 mg/ml dextran sulfate at 1.5×10^6 cells/ml in a total volume of 30 ml for 3 days. […] Six days following in vitro restimulation, the CTL populations were assayed for lytic activity against T2-A2/K^b target cells preincubated with the peptide used for stimulation (15 mM). The resultant Her-2/neu peptide-specific CTL populations were maintained in vitro by weekly restimulation. […]
Spleen cells from injected animals were restimulated in vitro with irradiated syngeneic cells pulsed with the peptide used for in vivo priming. Immunogenicity was evaluated by assaying these cultured cells for cytotoxicity against T2-A2.1/K^b target cells pulsed with the priming peptide. […]
Where [2] appears, read: E:T 60:1, T2A2/K^b targets pulsed with two mg of peptide, highest of at least three individual mice.
The mark [3] stands for this setting: peptide-priming of A2.1/K^b-Tg mice.

Take AAPPVAPAPA [hu-wt-p53: 69-78]: in the experiment on A2.1/K^b-Tg mice (setting [2]), the “Lytic Activity by Peptide-Specific CTL After Priming of A2.1/K^b-Tg Mice [Specific 51Cr release (%)]” value (shortened to “Lytic Activity … [Specific 51Cr release (%)]”) was determined as 0%.

With LLPENNVLSPL [hu-wt-p53: 25-35], the “Lytic Activity … [Specific 51Cr release (%)]” value in the experiment with A2.1/K^b-Tg mice (setting [2]) worked out at 47%. In the experiment on A2.1/K^b-Tg mice (setting [3]), the “A2.1/K^b-restricted peptide-specific CTL response, in words” value is reported as “detectable”. The “A2.1-binding activity / affinity, in words” value in the experiment with HLA-A2.1 is recorded as “high affinity”.

As to NTFRHSVVV [hu-wt-p53: 210-218], the “Lytic Activity … [Specific 51Cr release (%)]” value in the experiment on A2.1/K^b-Tg mice (setting [2]) is 6%.

For the sequence “ASNENMETM [Flu NP 1934: 366-374, reference compound]”, at HLA-A2.1, the “(%) [inhibition of A2.1-binding of M1 (58-66)]” value worked out at 4%.

Take LMLSPDDIEQ [hu-wt-p53: 43-52]: the “Lytic Activity … [Specific 51Cr release (%)]” value with A2.1/K^b-Tg mice (setting [2]) amounted to 3%.

As for KLVGKLNWA [HIV-9K, reference compound], the “Killing of Tumors Expressing Her-2/neu” value with SAOS.175 is 18 and 11; with SV80, 2; in the experiment on T98G, 9 and 13; in the experiment with CASKI, 8 and 11; in the experiment on SKMEL-5 it was 5 and 4; in the experiment on U2-OS it was 18 and 24. Besides, the “Killing of Tumors Expressing Her-2/neu” value is 1 in the experiment with ST486; 1 in the experiment on LG-2; 10 and 12 in the experiment with OVCAR-5; 4 and 3 in the experiment with MDA.MB435; 2 and 1 in the experiment with MALME-3M; 2 and 1 in the experiment with JY.

With STPPPGTRV [hu-wt-p53: 149-157], in the experiment with A2.1/K^b-Tg mice (mouse, in vivo), the “A2.1/K^b-restricted peptide-specific CTL response, in words” value is on record as “detectable” and the “Lytic Activity … [Specific 51Cr release (%)]” value is recorded as 91%. The “A2.1-binding activity / affinity, in words” value with HLA-A2.1 is listed as “intermediate affinity”.

As for “RGYVYQGL [VSV-N: 52-59, reference compound]”, at HLA-A2.1, the “(%) [inhibition of A2.1-binding of M1 (58-66)]” value is 4%.

Regarding RMPEAAPPV [hu-wt-p53: 65-73], the “Lytic Activity … [Specific 51Cr release (%)]” value with A2.1/K^b-Tg mice (setting [2]) came out at 85%. The “A2.1/K^b-restricted peptide-specific CTL response, in words” value in the experiment on A2.1/K^b-Tg mice (setting [3]) was “detectable”. Moreover, the “A2.1-binding activity / affinity, in words” value with HLA-A2.1 was “high affinity”.

With “ILKEPVHGV [HIV-1 RT: 476-484, reference compound]”, in the experiment with A2.1/K^b-Tg mice (mouse, in vivo), the “A2.1/K^b-restricted peptide-specific CTL response, in words” value is recorded as “could mount an A2.1/K^b-restricted CTL response” and the “Lytic Activity … [Specific 51Cr release (%)]” value is recorded as 85%. For the same sequence, on HLA-A2.1, the “(%) [inhibition of A2.1-binding of M1 (58-66)]” value turned out to be 72%.

With LLPENNVLS [hu-wt-p53: 25-33], the “Lytic Activity … [Specific 51Cr release (%)]” value in the experiment on A2.1/K^b-Tg mice (setting [2]) stood at 3%.

As for ITLEDSSGNL [hu-wt-p53: 255-264], in the experiment with A2.1/K^b-Tg mice (setting [2]), the “Lytic Activity … [Specific 51Cr release (%)]” value turned out to be 3%. The “A2.1/K^b-restricted peptide-specific CTL response, in words” value in the experiment on A2.1/K^b-Tg mice (setting [3]) is on record as “lack of CTL responsiveness”. For the same sequence, the “A2.1-binding activity / affinity, in words” value in the experiment with HLA-A2.1 was “intermediate”.

In the case of IISAVVGIL [Peptide H11], the “ability to stimulate a CTL response in Tg mice, in words” value in [1] was “could not elicit a response”.

In the case of AAPPVAPA [hu-wt-p53: 69-76], the “Lytic Activity … [Specific 51Cr release (%)]” value in the experiment with A2.1/K^b-Tg mice (mouse, in vivo) is 0%.

For AAPPVAPAPAA [hu-wt-p53: 69-79], the “Lytic Activity … [Specific 51Cr release (%)]” value in the experiment with A2.1/K^b-Tg mice (setting [2]) is 0%.

Take DLMLSPDDI [hu-wt-p53: 42-50]: in the experiment on A2.1/K^b-Tg mice (setting [2]), the “Lytic Activity … [Specific 51Cr release (%)]” value is recorded as 0%.

Regarding VLSPLPSQAM [hu-wt-p53: 31-40], the “Lytic Activity … [Specific 51Cr release (%)]” value in the experiment with A2.1/K^b-Tg mice (setting [2]) came out at 0%.

Turning to GLAPPQHLI [hu-wt-p53: 187-195], the “Lytic Activity … [Specific 51Cr release (%)]” value with A2.1/K^b-Tg mice (setting [2]) turned out to be 1%. Further, the “A2.1/K^b-restricted peptide-specific CTL response, in words” value with A2.1/K^b-Tg mice (setting [3]) was “lack of CTL responsiveness”. Also, the “A2.1-binding activity / affinity, in words” value with HLA-A2.1 is listed as “high”.

For VAPAPAAPT [hu-wt-p53: 73-81], the “Lytic Activity … [Specific 51Cr release (%)]” value in the experiment with A2.1/K^b-Tg mice (setting [2]) was 0%.

Take AAPTPAAPA [hu-wt-p53: 78-86]: the “Lytic Activity … [Specific 51Cr release (%)]” value in the experiment with A2.1/K^b-Tg mice (setting [2]) worked out at 0%.

Turning to LLGRDSFEV [mur-wt-p53: 261-269], the “Lytic Activity … [Specific 51Cr release (%)]” value in the experiment on A2.1/K^b-Tg mice (setting [2]) is 10%. The “A2.1/K^b-restricted peptide-specific CTL response, in words” value with A2.1/K^b-Tg mice (setting [3]) was “No significant response”. The “A2.1-binding activity / affinity, in words” value in the experiment with HLA-A2.1 (competition with M1 (58-66)) is “highest A2.1-binding activity of all p53 peptides tested”.

For PLDGEYFTL [hu-wt-p53: 322-330], in the experiment with A2.1/K^b-Tg mice (setting [2]), the “Lytic Activity … [Specific 51Cr release (%)]” value amounted to 0%. Moreover, the “A2.1/K^b-restricted peptide-specific CTL response, in words” value with A2.1/K^b-Tg mice (setting [3]) is on record as “lack of CTL responsiveness”. Also, the “A2.1-binding activity / affinity, in words” value in the experiment with HLA-A2.1 is “intermediate”.

For NLLGRNSFEV [hu-wt-p53: 263-272], the “Lytic Activity … [Specific 51Cr release (%)]” value in the experiment with A2.1/K^b-Tg mice (setting [2]) was found to be 3%.

For VLSPLPSQA [hu-wt-p53: 31-39], in the experiment with A2.1/K^b-Tg mice (setting [2]), the “Lytic Activity … [Specific 51Cr release (%)]” value is 3%.
